{"source": "paper PMC8548882", "about": "“The Trp-rich Antimicrobial Amphiphiles With Intramolecular Aromatic Interactions for the Treatment of Bacterial Infection” (Frontiers in Microbiology, 2021)", "key": {"E. coli 25922": {"system": "E. coli 25922", "format": "cell-based, Escherichia coli ATCC 25922", "text": "(§1) The tested strains were kindly provided by the laboratory of Veterinary Microbiology and Immunology, the College of Veterinary Medicine, Northeast Agricultural University (gram-negative bacteria, Salmonella enterica serovar typhimurium C77-31, Salmonella typhimurium ATCC 14028, Escherichia coli ATCC 25922, Pseudomonas aeruginosa ATCC 27853 and gram-positive bacteria, Staphylococcus aureus ATCC 29213, Staphylococcus aureus ATCC 43300, Staphylococcus epidermidis ATCC 12228, Staphylococcus aureus ATCC 25923)."}, "P.aeruginosa 27853": {"system": "P.aeruginosa 27853", "format": "cell-based, Pseudomonas aeruginosa ATCC 27853", "conditions": "27853", "text": "as §1\n(§2) The famous microtiter dilution, National Committee for Clinical Laboratory Standards, was adopted to measure the antimicrobial ability of the engineering peptides ([Chou et al., 2016]). In brief, the 50μl with serial dilution was incubated with the same volume bacteria (1×10^5CFU/ml in midi-logarithmic phase) in a 96-well plate 18–24h at 37°C. The positive control was the bacteria treated with culture medium and the negative control was merely culture medium. The MICs (minimum inhibitory concentrations) were defined as the lowest concentration of peptides that prevented the production of visible turbidity ([Tossi et al., 2000])."}, "S.aureus 25923": {"system": "S.aureus 25923", "format": "cell-based, Staphylococcus aureus ATCC 25923", "conditions": "25923", "text": "as §1, §2"}, "MRSA 43300": {"system": "MRSA 43300", "format": "cell-based, Staphylococcus aureus ATCC 43300", "conditions": "microtiter dilution, 1×10^5CFU/ml, 18–24h at 37°C, visible turbidity", "text": "as §1, §2"}, "[1]": {"system": "human red blood cells (hRBCs)", "assay": "Hemolytic activity", "format": "cell-based", "conditions": "hRBC; ratio of MHC to GM", "text": "The hemolytic activity of peptides was reflected by the releasing amount of hemoglobin from erythrocytes lysis induced by peptides ([Dong et al., 2014a]). The informed consent was obtained from the volunteers (3 healthy 25-year-old male volunteers) before the experiment. In brief, the human red blood cells (hRBCs), donated by volunteer, were collected, washed, and resuspended in PBS at pH 7.2. The peptides were serially diluted in PBS at different concentrations in a 96-well cell cultures plate and incubated with 50μl hRBCs for 1h at 37°C. The 0.1% Trition X-100 was selected as the treatment of positive control and the negative control was the hRBCs treated with PBS. After 1h incubation, the supernatant, obtained by centrifuging the plate 1,000g for 5min, was transferred to a brand-new plate for absorbance detection at 570nm. The releasing amount of hemoglobin was converted to the percent hemolysis against to 0.1% Triton X-100 treatment. The lowest concentration caused 5% hemolysis of hRBCs and was defined as the lowest hemolytic concentration of antimicrobial peptide."}, "IPEC-J2 cells": {"system": "IPEC-J2 cells", "format": "cell-based, porcine", "conditions": "IPEC-J2; ratio of IC50 to GM", "description": "The MTT (3-[4,5 dimethylthiozol-2-yl]-2,5-diphenylterazoliumbromide) dye was selected to analyze the cytotoxicity of peptides against the murine macrophage cell RAW 264.7 (National Collection of Authenticated Cell Cultures, Shanghai, China), human embryonic kidneys (HK293T), and the porcine intestinal epithelial cells (IPEC-J2) as in our previously study ([Li et al., 2020]). In short, the cells (10^4 cells/well) were seeded into 96-well plates and were cultivated overnight. Then the peptides with different final concentration (2μM, 4μM, 8μM, 16μM, 32μM, 64μM, and 128μM) were introduced into the plate and challenged with cells for 24h. After overnight incubation, the 50μl MTT (0.5mg/ml) was added into the cell cultures for 4h. Then the plate was centrifuged to discard the supernatants and obtain the formazan crystals. The DMSO (dimethyl sulfoxide) was employed as a solvent to dissolve the formazan crystals on the bottom of the plate and the optical density was read at 492nm with a microplate reader."}, "[2]": {"system": "P. aeruginosa ATCC 27853 cells", "assay": "Outer membrane permeabilization, NPN uptake", "format": "cell-based, Pseudomonas aeruginosa ATCC 27853", "description": "The outer membrane permeabilization of peptides was observed by monitoring the fluorescence change of dye 1-N-phenylnaphthylamine (NPN; Dong et al., 2014c). The 10μm NPN (Sigma-Aldrich, Shanghai, China) was first incubated with the P. aeruginosa ATCC 27853 cells (OD600=0.2, suspended in 5mM HEPES buffer supplied with 5mM glucose) for 30min. Afterward, the mixture was subjected to the detection of fluorescence, which served as the background at the excitation wavelength (λ=350nm) and the emission wavelength (λ=420nm). Then the peptides with various concentrations (1μM, 2μM, 4μM, 8μM, 16μM, 32μM, and 64μM) were added into the mixture and the fluorescence was monitored until the value was tended to stable. The %NPN uptake against 10μg/ml polymyxin B was calculated to analyze the outer membrane permeability of peptides."}, "P. aeruginosa ATCC 27853": {"system": "P. aeruginosa ATCC 27853", "assay": "Transmission electron microscope", "format": "cell-based, Pseudomonas aeruginosa ATCC 27853", "conditions": "MIC (1μM)", "text": "(§3) The sample for the test of the Transmission Electron Microscope (TEM) was to follow the same procedure as SEM. After the overnight pre-fixation with 2.5% glutaraldehyde, the bacteria was then post-fixed with 2% osmium tetroxide (sealed ampule, Shanghai, China). Afterward, the samples were dehydrated with ethanol at a series of concentrations (50, 70, 90, and 100%) and substituted the 100% ethanol with 50% ethanol+50% acetone, 100% acetone, 50% acetone+50% epoxy resin, and 100% epoxy resin successively. Finally, the samples were sectioned and stained for observation."}, "S. aureus ATCC 29213": {"system": "S. aureus ATCC 29213", "assay": "Transmission electron microscope", "format": "cell-based, Staphylococcus aureus ATCC 29213", "conditions": "MIC (2μM)", "text": "as §3"}, "[3]": {"system": "hRBC, IPEC-J2, HEK 293T, RAW264.7", "conditions": "hRBC, IPEC-J2, HEK 293T, RAW264.7; listed as F5", "description": "Besides, the therapeutic index of peptide in the mammalian eukaryotic cell (RAW 264.7, HEK 293T, and IPEC J2) was also calculated to study the biocompatibility of peptides."}, "normal skin tissue": {"system": "normal skin tissue", "conditions": "mouse, in vivo, sc, 5 mg/kg"}, "[4]": {"system": "Pseudomonas aeruginosa ATCC 27853", "assay": "Subcutaneous abscess model"}}, "note": "Ends that are not written are not given here.", "data": [{"substance": "VKKWVKKWVKKWVKKW-NH2 [VW5]", "values": [{"measurement": "MIC", "setting": "E. coli 25922", "result": 2, "unit": "µM"}, {"measurement": "MIC", "setting": "P.aeruginosa 27853", "result": 1, "unit": "µM"}, {"measurement": "MIC", "setting": "S.aureus 25923", "result": 2, "unit": "µM"}, {"measurement": "MIC", "setting": "MRSA 43300", "result": 2, "unit": "µM"}, {"measurement": "Therapeutic index (TI)", "setting": "[1]", "result": "> 76.19"}, {"measurement": "Therapeutic index (TI)", "setting": "IPEC-J2 cells", "result": 3051.34}, {"measurement": "%NPN uptake against 10μg/ml polymyxin B", "setting": "[2]; peptide 1μM", "result": 9.49, "unit": "%"}, {"measurement": "%NPN uptake against 10μg/ml polymyxin B", "setting": "[2]; peptide 64μM", "result": 102.91, "unit": "%"}, {"measurement": "ultrastructure (TEM)", "setting": "P. aeruginosa ATCC 27853", "result": "cellular contents of bacterial cells leaked"}, {"measurement": "ultrastructure (TEM)", "setting": "S. aureus ATCC 29213", "result": "diffused around the shrunken cells"}, {"measurement": "GMTI, geometric mean of TI of various cell lines", "setting": "[3]", "result": "> 1218.17"}, {"measurement": "apoptotic cells in epidermal layer (TUNEL)", "setting": "normal skin tissue", "result": "no obvious green fluorescence"}, {"measurement": "bacterial load in the abscess lesion", "setting": "[4]; 5mg/kg intraperitoneally twice a day, Day 3, n=6", "result": "12.72±2.26 ×10^9CFU/abscess"}, {"measurement": "IL-1β in serum", "setting": "[4]; 5mg/kg, Day 3, ELISA, saline 95.99±4.31", "result": "72.36 ± 4.15", "unit": "pg/mL"}, {"measurement": "IL-1α in serum", "setting": "[4]; 5mg/kg, Day 3, ELISA, saline 99.95±4.71", "result": "79.82 ± 4.79", "unit": "pg/mL"}, {"measurement": "TNF-α in serum", "setting": "[4]; 5mg/kg, Day 3, ELISA, saline 1020.654±51.08", "result": "756.62 ± 39.12", "unit": "pg/mL"}, {"measurement": "IL-2 in serum", "setting": "[4]; 5mg/kg, Day 3, ELISA, saline 1492.65±48.11", "result": "1296.25 ± 150.86", "unit": "pg/mL"}, {"measurement": "histological examination of abscess lesion, dermal tissue structures", "setting": "[4]; 5mg/kg, HE staining, Day 3", "result": "relative integrity"}]}]}
